This is an account of results in patent publication US11554171B2, “Compounds and methods for the targeted degradation of bromodomain-containing proteins” (Arvinas Operations, Inc., priority 2015, dated 2023).

SMILES strings stand for the structures.

This assay concerns c-myc in 22RV-1 cells. Kind of assay: Human c-myc ELISA assay. The format is cell-based. The note with it: Homo sapiens; for Emax: 22Rv1, 18 h, read-out: Degradation of BRD4: Maximum inhibition (%) c-Myc ELISA in 22RV1 cells; for DC50: 22Rv1, read-out: Degradation of BRD4: DC50 (uM) c-Myc ELISA in 22RV1 cells. The essentials: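 c-myc levels measured by ELISA in RIPA lysates of 22RV-1 cells, calibrated with a 333-0 pg/ml standard curve. Lysates came from cells exposed for 18 h to an 8-point, 1:3 dose series starting at 300 nM or 1 μM final in 0.1% DMSO. Suppression potency given as DC50.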
(In general: An ELISA detects its analyte on a solid surface through an enzyme-linked reagent.)

For `Cc1sc2c(c1C)C(c1ccc(Cl)cc1)=N[C@@H](CC(=O)N[C@H]1C[C@@H](Oc3cc(-c4cnn([C@@H](C(=O)N5C[C@H](O)C[C@H]5C(=O)N[C@@H](C)c5ccc(-n6ccnc6C)cc5)C(C)C)c4)ccn3)C1)c1nnc(C)n1-2` [Example 287], the Emax was 17.3% and the DC50 (as a rule, the concentration at which degradation of the target reaches its halfway point) is greater than 1 µM.

Regarding `Cc1ncsc1-c1ccc([C@H](C)NC(=O)[C@@H]2C[C@@H](O)CN2C(=O)[C@@H](NC(=O)COc2ccc(N3CCN(C(=O)C[C@@H]4N=C(c5ccc(Cl)cc5)c5c(sc(C)c5C)-n5c(C)nnc54)CC3)nc2)C(C)(C)C)cc1` [Example 288], the Emax was found to be 98% and the DC50 was less than 0.01 µM.

For the compound `Cc1sc2c(c1C)C(c1ccc(Cl)cc1)=N[C@@H](CC(=O)N[C@H]1C[C@@H](Oc3cc(-c4cnn([C@H](C(=O)N5C[C@H](O)C[C@H]5C(=O)N[C@@H](C)c5ccc(-n6ccnc6C)cc5)C(C)C)c4)ccn3)C1)c1nnc(C)n1-2` [Example 289], the Emax came out at 93.8% and the DC50 lay within 0.1 to 1 µM.

As to `Cc1sc2c(c1C)C(c1ccc(Cl)cc1)=N[C@@H](CC(=O)N[C@H]1C[C@@H](Oc3cccc(-c4cnn([C@@H](C(=O)N5C[C@H](O)C[C@H]5C(=O)N[C@@H](C)c5ccc(-c6nccn6C)cc5)C(C)C)c4)c3)C1)c1nnc(C)n1-2` [Example 290], the Emax turned out to be 15.5% and the half-maximal degradation concentration (DC50) is greater than 1 µM.

Take `Cc1sc2c(c1C)C(c1ccc(Cl)cc1)=N[C@@H](CC(=O)N[C@H]1C[C@@H](Oc3cccc(-c4cnn([C@H](C(=O)N5C[C@H](O)C[C@H]5C(=O)N[C@@H](C)c5ccc(-c6nccn6C)cc5)C(C)C)c4)c3)C1)c1nnc(C)n1-2` [Example 291]: the Emax is 22.2% and the DC50 was greater than 1 µM.

`Cc1sc2c(c1C)C(c1ccc(Cl)cc1)=N[C@@H](CC(=O)N[C@H]1C[C@@H](Oc3cc(-c4cnn([C@@H](C(=O)N5C[C@H](O)C[C@H]5C(=O)N[C@@H](C)c5ccc(-c6nccn6C)cc5)C(C)C)c4)ccn3)C1)c1nnc(C)n1-2` [Example 292]: the Emax amounted to 10% and the DC50 was greater than 1 µM.

Consider `Cc1sc2c(c1C)C(c1ccc(Cl)cc1)=N[C@@H](CC(=O)N[C@H]1C[C@@H](Oc3cc(-c4cnn([C@H](C(=O)N5C[C@H](O)C[C@H]5C(=O)N[C@@H](C)c5ccc(-c6nccn6C)cc5)C(C)C)c4)ccn3)C1)c1nnc(C)n1-2` [Example 293], for which the Emax turned out to be 9.5% and the 50% degradation concentration (DC50) is greater than 1 µM.

In the case of `Cc1ncoc1-c1ccc(CNC(=O)[C@@H]2C[C@@H](O)CN2C(=O)[C@@H](C(C)C)n2cc(-c3ccnc(O[C@H]4C[C@@H](NC(=O)C[C@@H]5N=C(c6ccc(Cl)cc6)c6c(sc(C)c6C)-n6c(C)nnc65)C4)c3)cn2)cc1` [Example 294], the Emax is 43.4% and the DC50 was greater than 1 µM.

For the compound `Cc1ncoc1-c1ccc(CNC(=O)[C@@H]2C[C@@H](O)CN2C(=O)[C@H](C(C)C)n2cc(-c3ccnc(O[C@H]4C[C@@H](NC(=O)C[C@@H]5N=C(c6ccc(Cl)cc6)c6c(sc(C)c6C)-n6c(C)nnc65)C4)c3)cn2)cc1` [Example 295], the Emax is 93.8% and the 50% degradation concentration (DC50) was 0.1 to 1 µM.

Take `Cc1ncsc1-c1ccc(CNC(=O)[C@@H]2C[C@@H](O)CN2C(=O)[C@H](c2cc(OCCC(F)(F)CCNC(=O)C[C@@H]3N=C(c4ccc(Cl)cc4)c4c(sc(C)c4C)-n4c(C)nnc43)no2)C(C)C)cc1` [Example 296, (2S,4R)-1-[(2S)-2-{3-[(5-{2-[(9S)-7-(4-chlorophenyl)-4,5,13-trimethyl-3-thia-1,8,11,12-tetraazatricyclo[8.3.0.0^2,^6]trideca-2(6),4,7,10,12-pentaen-9-yl]acetamido}-3,3-difluoropentyl)oxy]-1,2-oxazol-5-yl}-3-methylbutanoyl]-4-hydroxy-N-{[4-(4-methyl-1,3-thiazol-5-yl)phenyl]methyl}pyrrolidine-2-carboxamide]: the Emax is 71.4% and the DC50 was in the range of 0.1 to 1 µM.

For the compound `Cc1ncsc1-c1ccc(CNC(=O)[C@@H]2C[C@@H](O)CN2C(=O)[C@@H](c2cc(OCCC(F)(F)CCNC(=O)C[C@@H]3N=C(c4ccc(Cl)cc4)c4c(sc(C)c4C)-n4c(C)nnc43)no2)C(C)C)cc1` [Example 297, (2S,4R)-1-[(2R)-2-{3-[(5-{2-[(9S)-7-(4-chlorophenyl)-4,5,13-trimethyl-3-thia-1,8,11,12-tetraazatricyclo[8.3.0.0^2,^6]trideca-2(6),4,7,10,12-pentaen-9-yl]acetamido}-3,3-difluoropentyl)oxy]-1,2-oxazol-5-yl}-3-methylbutanoyl]-4-hydroxy-N-{[4-(4-methyl-1,3-thiazol-5-yl)phenyl]methyl}pyrrolidine-2-carboxamide], the Emax was 97% and the DC50 is less than 0.01 µM.

Consider `Cc1sc2c(c1C)C(c1ccc(Cl)cc1)=N[C@@H](CC(=O)N[C@H]1C[C@@H](Oc3cccc(-c4cnn([C@@H](C(=O)N5C[C@H](O)C[C@H]5C(=O)N[C@@H](C)c5ccc(-n6ccnc6C)cc5)C(C)C)c4)c3)C1)c1nnc(C)n1-2` [Example 298], for which the Emax came out at 25.5% and the DC50 was greater than 1 µM.

As for `Cc1sc2c(c1C)C(c1ccc(Cl)cc1)=N[C@@H](CC(=O)N[C@H]1C[C@@H](Oc3cccc(-c4cnn([C@H](C(=O)N5C[C@H](O)C[C@H]5C(=O)N[C@@H](C)c5ccc(-n6ccnc6C)cc5)C(C)C)c4)c3)C1)c1nnc(C)n1-2` [Example 299], the Emax is 72.5% and the half-maximal degradation concentration (DC50) lay in the range of 0.1 to 1 µM.

Take `Cc1ncsc1-c1ccc([C@H](C)NC(=O)[C@@H]2C[C@@H](O)CN2C(=O)[C@@H](C(C)C)n2cc(-c3ccnc(O[C@H]4C[C@@H](NC(=O)C[C@@H]5N=C(c6ccc(Cl)cc6)c6c(sc(C)c6C)-n6c(C)nnc65)C4)n3)cn2)cc1` [Example 300]: the Emax was 24% and the 50% degradation concentration (DC50) was greater than 1 µM.

Consider `Cc1ncsc1-c1ccc([C@H](C)NC(=O)[C@@H]2C[C@@H](O)CN2C(=O)[C@H](C(C)C)n2cc(-c3ccnc(O[C@H]4C[C@@H](NC(=O)C[C@@H]5N=C(c6ccc(Cl)cc6)c6c(sc(C)c6C)-n6c(C)nnc65)C4)n3)cn2)cc1` [Example 301], for which the Emax stood at 95% and the DC50 is 0.01 to 0.1 µM.

On to `Cc1ncsc1-c1ccc([C@H](C)NC(=O)[C@@H]2C[C@@H](O)CN2C(=O)[C@H](C(C)C)n2cc(-c3cc(O[C@H]4C[C@@H](NC(=O)C[C@@H]5N=C(c6ccc(Cl)cc6)c6c(sc(C)c6C)-n6c(C)nnc65)C4)ccn3)cn2)cc1` [Example 302], for which the Emax was 92% and the half-maximal degradation concentration (DC50) was in the range of 0.01 to 0.1 µM.

Consider `Cc1ncsc1-c1ccc([C@H](C)NC(=O)[C@@H]2C[C@@H](O)CN2C(=O)[C@@H](C(C)C)n2cc(-c3cc(O[C@H]4C[C@@H](NC(=O)C[C@@H]5N=C(c6ccc(Cl)cc6)c6c(sc(C)c6C)-n6c(C)nnc65)C4)ccn3)cn2)cc1` [Example 303], for which the Emax came to 9.8% and the DC50 was greater than 1 µM.

`Cc1ncsc1-c1ccc([C@H](C)NC(=O)[C@@H]2C[C@@H](O)CN2C(=O)[C@H](C(C)C)n2cc(-c3cc(O[C@H]4C[C@H](NC(=O)C[C@@H]5N=C(c6ccc(Cl)cc6)c6c(sc(C)c6C)-n6c(C)nnc65)C4)ccn3)cn2)cc1` [Example 304]: the Emax worked out at 95% and the 50% degradation concentration (DC50) was in the range of 0.01 to 0.1 µM.

As to `Cc1ncsc1-c1ccc([C@H](C)NC(=O)[C@@H]2C[C@@H](O)CN2C(=O)[C@@H](C(C)C)n2cc(-c3cc(O[C@H]4C[C@H](NC(=O)C[C@@H]5N=C(c6ccc(Cl)cc6)c6c(sc(C)c6C)-n6c(C)nnc65)C4)ccn3)cn2)cc1` [Example 305], the Emax was found to be 6.7% and the 50% degradation concentration (DC50) is greater than 1 µM.

On to `Cc1ncsc1-c1ccc([C@H](C)NC(=O)[C@@H]2C[C@@H](O)CN2C(=O)[C@@H](NC(=O)CN2CCC(O[C@H]3C[C@H](NC(=O)C[C@@H]4N=C(c5ccc(Cl)cc5)c5c(sc(C)c5C)-n5c(C)nnc54)C3)CC2)C(C)(C)C)cc1` [Example 306, (2S,4R)-1-[(2S)-3,3-dimethyl-2-(2-{4-[(1,3-trans)-3-{2-[(9S)-7-(4-chlorophenyl)-4,5,13-trimethyl-3-thia-1,8,11,12-tetraazatricyclo[8.3.0.0^2,^6]trideca-2(6),4,7,10,12-pentaen-9-yl]acetamido}cyclobutoxy]piperidin-1-yl}acetamido)butanoyl]-4-hydroxy-N-[(1S)-1-[4-(4-methyl-1,3-thiazol-5-yl)phenyl]ethyl]pyrrolidine-2-carboxamide], for which the Emax is 100% and the DC50 is less than 0.01 µM.

Turning to `Cc1sc2c(c1C)C(c1ccc(Cl)cc1)=N[C@@H](CC(=O)N[C@H]1C[C@H](Oc3ccc(CC(=O)N[C@H](C(=O)N4C[C@H](O)C[C@H]4C(=O)N[C@@H](C)c4ccc(S(C)(=O)=O)cc4)C(C)(C)C)cc3)C1)c1nnc(C)n1-2` [Example 307], the Emax is 15% and the DC50 is greater than 1 µM.

`Cc1sc2c(c1C)C(c1ccc(Cl)cc1)=N[C@@H](CC(=O)N[C@H]1C[C@H](Oc3ccc(CC(=O)N[C@H](C(=O)N4C[C@H](O)C[C@H]4C(=O)N[C@H](C)c4ccc(S(C)(=O)=O)cc4)C(C)(C)C)cc3)C1)c1nnc(C)n1-2` [Example 308]: the Emax was 21% and the half-maximal degradation concentration (DC50) was greater than 1 µM.

Turning to `Cc1ncsc1-c1ccc(CNC(=O)[C@@H]2C[C@@H](O)CN2C(=O)[C@H](c2cc(OCCN3CC[C@H](NC(=O)C[C@@H]4N=C(c5ccc(Cl)cc5)c5c(sc(C)c5C)-n5c(C)nnc54)C3)no2)C(C)C)cc1` [Example 309], the Emax stood at 18% and the half-maximal degradation concentration (DC50) was greater than 1 µM.

Consider `Cc1ncsc1-c1ccc(CNC(=O)[C@@H]2C[C@@H](O)CN2C(=O)[C@@H](c2cc(OCCN3CC[C@H](NC(=O)C[C@@H]4N=C(c5ccc(Cl)cc5)c5c(sc(C)c5C)-n5c(C)nnc54)C3)no2)C(C)C)cc1` [Example 310], for which the Emax came to 94% and the half-maximal degradation concentration (DC50) was less than 0.01 µM.

Turning to `Cc1ncsc1-c1ccc([C@H](C)NC(=O)[C@@H]2C[C@@H](O)CN2C(=O)[C@@H](NC(=O)COCCCN2CCN(C(=O)C[C@@H]3N=C(c4ccc(Cl)cc4)c4c(sc(C)c4C)-n4c(C)nnc43)CC2)C(C)(C)C)cc1` [Example 313], the Emax was determined as 87.5% and the half-maximal degradation concentration (DC50) lay in the range of 0.01 to 0.1 µM.
